Results: paper PMC8605905 (Oxidative Medicine and Cellular Longevity, 2021)

Key:
[1] = system: CRE-GFP 293 cells; test: CRE-GFP 293 reporter cell assay (flow cytometry); format: cell-based, Human; conditions: 0.5–2 μM for 5 h
Description: Using the pCRE-MetLuc2-Reporter plasmid (Clontech, Mountain View, CA, USA) as a template, the DNA fragment containing the cAMP response element (CRE) motifs and TATA-like promoter (PTAL) flanked by MluI and AgeI restriction sites was amplified by PCR using sense ([…], MluI site underlined) and antisense ([…], AgeI site underlined) primers. The amplified CRE-PTAL promoter fragment was cloned into pGEM-T Easy (Promega, Madison, WI, USA) and sequenced. The CRE-PTAL-containing MluI/AgeI fragment and GFP-containing AgeI/NotI fragment (from pEGFP-N1; Clontech) were subcloned into MluI- and NotI-digested pcDNA5/FRT/TO (Novagen, Madison, WI, USA). The resulting construct with CRE-PTAL-driving GFP was used to establish 293 GFP reporter cells by targeting insertion into Flp-In-293 cells according to the supplier's instructions (Invitrogen). The cells were grown in a medium containing 5 μg/ml blasticidin and 100 μg/ml hygromycin.
(§1) On day 1, CRE-GFP 293 cells were seeded into 48-well plates (5 × 10^4/well). After 24 h, cells were treated with Ca^2+ ionophore (2 μM) (Sigma-Aldrich) for 0–24 h. Cell viability was measured using 3,(4,5-dimethylthiazol-2-yl)-2,5-diphenyltetrazolium bromide (MTT) assay (Sigma-Aldrich). The absorbance of the insoluble purple formazan dye was quantified at 570 nm on a μQuant microplate spectrophotometer (Bio-Tek). In addition, the cells were treated with the Ca^2+ ionophore A23187 (0.5–10 μM) (Sigma-Aldrich) for 5 h, followed by analysis of GFP fluorescence by flow cytometry (Becton–Dickinson, Franklin Lakes, NJ, USA) with excitation/emission wavelengths at 488/507 nm. To monitor CREB activation, cells were treated with forskolin or coumarin-chalcone derivatives (5–10 μM) in the presence or absence of Ca^2+ ionophore (2 μM) for 5 h, and GFP fluorescence was analysed.
To monitor the cAMP-mediated signal transduction pathway, CRE-GFP 293 cells in 6-well plates (1 × 10^6/well) were pretreated with kinase inhibitor H-89 (LC Laboratories, Woburn, MA, USA), KN-62 (Cayman Chemical, Ann Arbor, MI, USA), U0126 (LC Laboratories), or wortmannin (LC Laboratories) (10 μM) for 4 h before forskolin or LM-021 (10 μM) addition for 5 h. GFP fluorescence/protein and total/phosphorylated PKA, CaMKII, ERK, PI3K, and CREB levels were examined. In addition, Aβ-GFP or ∆K280 tauRD-DsRed SH-SY5Y cells were treated with retinoic acid (10 μM) on day 1, followed by the addition of LM-021 (5 or 10 μM) and doxycycline (5 or 2 μg/ml) on day 2, as described. Kinase inhibitors (10 μM) were added on day 6. On day 8, the cells were collected for protein expression analysis of BDNF, BCL2 (BCL2 apoptosis regulator), and BAX (BCL2 associated X, apoptosis regulator), and total/phosphorylated PKA, CaMKII, ERK, PI3K, and CREB. Also, cells were stained with DAPI and assessed for neurite outgrowth as described above.

[2] = system: CRE-GFP 293 cells; test: MTT cell viability of CRE-GFP 293 cells; format: cell-based, Human; conditions: 2 μM for 3–6 h
Experimental: as §1

[3] = in vivo, po; cited from earlier work

Structure (SMILES) | CRE-motif-driven GFP expression [1] | Cell viability (MTT) [2] | Share of orally administered dose that enters the brain [3]
CNc1ccc2oc(C[C@H]3O[C@@]4(CC[C@H]3C)O[C@H]([C@H](C)C(=O)c3ccc[nH]3)[C@H](C)C[C@H]4C)nc2c1C(=O)O [Ca^2+ ionophore] | stimulated | No significant cell death | –
N[C@@H](Cc1ccc(O)c(O)c1)C(=O)O [levodopa] | – | – | about 1%
